Molecular target: T1, human CB2R (Homo sapiens, UniProt P34972)
T1 construct: host or cells: CHO cells
Experiment: CB2R mediated modulation of cAMP synthesis
Format: cell-based
Settings: found through the use of the described assays (CB2 agonists); qualitative statement
Experimental: B. CB2R Mediated Modulation of cAMP Synthesis:
CHO cells expressing human CB2R (Euroscreen) were plated at a density of 5000 cells per well in 384 well plates and incubated overnight at 37° C. After removing the media, the cells were treated with test compounds diluted in stimulation buffer containing 1 mM IBMX, 0.25% BSA and 10 uM Forskolin. The assay was incubated for 30 minutes at 37° C. Cells were lysed and the cAMP concentration was measured using DiscoverX-XS cAMP kit, following the manufacturer's protocol. In this setting, agonists will decrease forskolin induced production of cAMP while inverse agonists will further increase forskolin induced production of cAMP. EC50 of agonists were calculated as follows. The maximal amount of cAMP produced by forskolin compared to the level of cAMP inhibited by 1 uM CP55940 is defined as 100%. […] Data was analyzed using a four-parameter logistic model. (Model 205 of XLfit 4.0).

T1 sequence (P34972 whole entry): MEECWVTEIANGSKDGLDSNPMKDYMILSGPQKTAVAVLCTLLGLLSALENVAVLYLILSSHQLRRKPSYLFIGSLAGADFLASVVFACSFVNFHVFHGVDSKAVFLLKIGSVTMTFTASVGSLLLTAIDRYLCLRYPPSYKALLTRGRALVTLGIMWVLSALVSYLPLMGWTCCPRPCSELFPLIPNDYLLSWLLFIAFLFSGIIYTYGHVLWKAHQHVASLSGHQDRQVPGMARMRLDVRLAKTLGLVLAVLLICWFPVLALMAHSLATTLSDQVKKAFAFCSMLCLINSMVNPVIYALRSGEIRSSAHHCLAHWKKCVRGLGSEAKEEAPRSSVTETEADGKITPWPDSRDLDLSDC

Structure (SMILES) | agonistic activity
O=C(CC1CCCC1)N1CCCN(C(=O)Nc2ccc(-c3ccccc3)cc2)CC1 [4-(2-Cyclopentyl-acetyl)-[1,4]diazepane-1-carboxylic acid (4-biphenyl)-amide] | agonistic activity
CCCCCc1ccc(NC(=O)N2CCCN(C(=O)CC3CCCC3)CC2)cc1 [4-(2-Cyclopentyl-acetyl)-[1,4]diazepane-1-carboxylic acid (4-n-pentyl-phenyl)-amide] | agonistic activity
CCC(C)c1ccc(NC(=O)N2CCCN(C(=O)CC3CCCC3)CC2)cc1 (stereo not shown) [4-(2-Cyclopentyl-acetyl)-[1,4]diazepane-1-carboxylic acid (4-sec-butyl-phenyl)-amide] | agonistic activity
CC(C)(C)c1ccc(NC(=O)N2CCCN(C(=O)CC3CCCC3)CC2)cc1 [4-(2-Cyclopentyl-acetyl)-[1,4]diazepane-1-carboxylic acid (4-tert-butyl-phenyl)-amide] | agonistic activity
CC(C)(C)c1cc(NC(=O)N2CCCN(C(=O)CC3CCCC3)CC2)no1 [4-(2-Cyclopentyl-acetyl)-[1,4]diazepane-1-carboxylic acid (5-tert-butyl-isoxazol-3-yl)-amide] | agonistic activity
CC(C)(C)c1ccc(NC(=O)N2CCCN(C(=O)COc3ccccc3)CC2)cc1 [4-(2-Phenoxy-acetyl)-[1,4]diazepane-1-carboxylic acid (4-tert-butyl-phenyl)-amide] | agonistic activity
O=C(COc1ccccc1)N1CCCN(C(=O)Nc2ccc3ccccc3c2)CC1 [4-(2-Phenoxy-acetyl)-[1,4]diazepane-1-carboxylic acid naphthalen-2-ylamide] | agonistic activity
CC(C)(C)c1ccc(NC(=O)N2CCCN(C(=O)CNc3ccccc3)CC2)cc1 [4-(2-Phenylamino-acetyl)-[1,4]diazepane-1-carboxylic acid (4-tert-butyl-phenyl)-amide] | agonistic activity

More lines, now with the values ahead:

agonistic activity | Structure (SMILES)
agonistic activity | CCCC(=O)c1ccc(NC(=O)N2CCCN(C(=O)CC3CCCC3)CC2)cc1 [4-(2-Cyclopentyl-acetyl)-[1,4]diazepane-1-carboxylic acid (4-butyryl-phenyl)-amide]
agonistic activity | CCc1ccc(NC(=O)N2CCCN(C(=O)CC3CCCC3)CC2)cc1 [4-(2-Cyclopentyl-acetyl)-[1,4]diazepane-1-carboxylic acid (4-ethyl-phenyl)-amide]
agonistic activity | CC(C)c1ccc(NC(=O)N2CCCN(C(=O)CC3CCCC3)CC2)cc1 [4-(2-Cyclopentyl-acetyl)-[1,4]diazepane-1-carboxylic acid (4-isopropyl-phenyl)-amide]
agonistic activity | CS(=O)(=O)c1ccc(NC(=O)N2CCCN(C(=O)CC3CCCC3)CC2)cc1 [4-(2-Cyclopentyl-acetyl)-[1,4]diazepane-1-carboxylic acid (4-methanesulfonyl-phenyl)-amide]
agonistic activity | CSc1ccc(NC(=O)N2CCCN(C(=O)CC3CCCC3)CC2)cc1 [4-(2-Cyclopentyl-acetyl)-[1,4]diazepane-1-carboxylic acid (4-methylsulfanyl-phenyl)-amide]
agonistic activity | O=C(CC1CCCC1)N1CCCN(C(=O)Nc2ccc(OC(F)(F)F)cc2)CC1 [4-(2-Cyclopentyl-acetyl)-[1,4]diazepane-1-carboxylic acid (4-trifluoromethoxy-phenyl)-amide]
agonistic activity | O=C(CC1CCCC1)N1CCCN(C(=O)Nc2ccc(C(F)(F)F)cc2)CC1 [4-(2-Cyclopentyl-acetyl)-[1,4]diazepane-1-carboxylic acid (4-trifluoromethyl-phenyl)-amide]
agonistic activity | CCCC(O)c1ccc(NC(=O)N2CCCN(C(=O)CC3CCCC3)CC2)cc1 (stereo not shown) [4-(2-Cyclopentyl-acetyl)-[1,4]diazepane-1-carboxylic acid [4-(1-hydroxy-butyl)-phenyl]-amide]
